This experiment relates to HIV-1. As to the kind of experiment: Quantification of viral DNA genomes by qPCR in infected MT4 cells. The conditions noted are these: single HIV-1 replication cycle; for total viral DNA: increasing concentrations. The class given is cell-based. The method, then: Quantitative PCR (qPCR) was performed as described previously ([Munir et al., 2013]). […] Cells were washed in phosphate-buffered saline (PBS), and dry cell pellets were frozen at −80°C until use. DNA from samples was purified with QIAamp DNA Blood mini kit (Qiagen, Valencia, CA, USA) according to the manufacturer’s instructions. Quantification of total viral DNAs, 2-LTR circular viral DNA (2-LTRc), and integrated DNAs was performed on a LightCycler instrument (Roche Diagnostics, Basel, Switzerland) using the second-derivative-maximum method provided by the LightCycler quantification software, version 3.5 (Roche Diagnostics). Amplification of the β-globin gene (two copies per diploid cell) was performed to normalize the results using the commercially available materials (Control kit DNA; Roche Diagnostics). The quantification of the results for 2-LTRc and total HIV-1 DNA was expressed as copy numbers per µg DNA. Integrated HIV-1 DNA was expressed as a percentage of wt control. Data were represented by mean and standard deviation of two independent experiments; p-values were calculated between the infected and infected-treated conditions by unpaired, two-tailed t-tests using GraphPad Prism Version 9.5.1 software (GraphPad Software, Inc., San Diego, CA, USA). Figures were drawn with GraphPad Prism Version 9.5.1.
For orientation: Real-time PCR tracks product formation cycle by cycle.

Turning to `O=C1Nc2ccc(Cl)cc2/C1=N/Nc1nc(-c2ccc(Cl)c(Cl)c2)cs1` [9b], the “DNA 2LTRc levels” value is given as “no increase” and the “total viral DNA” value is reported as “decrease in total viral DNA”.

`Cc1ccc(-c2csc(N/N=C3\C(=O)Nc4ccc([N+](=O)[O-])cc43)n2)cc1` [10a]: the “DNA 2LTRc levels” value is reported as “marked increase” and the “total viral DNA” value is “decrease in total viral DNA”. For the same compound, the “integrated viral DNA” value (48 h) is on record as “significantly more marked effect than 9b”.

These data come from article PMC10328743, “5-Nitro-3-(2-(4-phenylthiazol-2-yl)hydrazineylidene)indolin-2-one derivatives inhibit HIV-1 replication by a multitarget mechanism of action” (Frontiers in Cellular and Infection Microbiology, 2023).
